Laboratory results reported in ChEMBL document CHEMBL1201862, “PubChem BioAssay data set” (2004).
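Interpolation was linear, between the two tested concentrations surrounding the appropriate level; five concentrations were tested over 48 hours in 96-well plates. GI50 = concentration required for 50% inhibition of growth.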 Activity calls are given as the source filed them. Cut-off read from the data, not from the text of the source: active = GI50 up to about 1.1 µM and inactive = higher.

Tests used:
Assay in all cases: growth of human tumour cells (NCI), 48 h
DU-145 = test system: DU-145
ACHN = test system: ACHN
SNB-19 = test system: SNB-19
UACC-257 = test system: UACC-257
OVCAR-3 = test system: OVCAR-3
SF-295 = test system: SF-295
A549 = test system: A549
NCI-H23 = test system: NCI-H23
OVCAR-5 = test system: OVCAR-5
MCF7 = test system: MCF7
COLO 205 = test system: COLO 205
MOLT-4 = test system: MOLT-4
PC-3 = test system: PC-3
NCI-H226 = test system: NCI-H226
MDA-MB-435 = test system: MDA-MB-435
HCC 2998 = test system: HCC 2998
NCI-H460 = test system: NCI-H460
Hs-578T = test system: Hs-578T
UO-31 = test system: UO-31
RPMI-8226 = test system: RPMI-8226
Malme-3M = test system: Malme-3M
U-251 = test system: U-251
CAKI-1 = test system: CAKI-1
HCT-116 = test system: HCT-116
SN12C = test system: SN12C
T47D = test system: T47D
MDA-MB-231 = test system: MDA-MB-231
HT-29 = test system: HT-29
CCRF-CEM = test system: CCRF-CEM
OVCAR-8 = test system: OVCAR-8
SK-OV-3 = test system: SK-OV-3
786-0 = test system: 786-0
SK-MEL-2 = test system: SK-MEL-2
SK-MEL-28 = test system: SK-MEL-28
OVCAR-4 = test system: OVCAR-4
K562 = test system: K562
HOP-62 = test system: HOP-62
NCI/ADR-RES = test system: NCI/ADR-RES
EKVX = test system: EKVX
HL-60 = test system: HL-60
MDA-N = test system: MDA-N
SK-MEL-5 = test system: SK-MEL-5
NCI-H522 = test system: NCI-H522
TK-10 = test system: TK-10
SF-268 = test system: SF-268
LOX IMVI = test system: LOX IMVI
M14 = test system: M14
RXF 393 = test system: RXF 393
SNB-75 = test system: SNB-75
BT-549 = test system: BT-549
KM12 = test system: KM12
HCT-15 = test system: HCT-15
SW-620 = test system: SW-620
UACC-62 = test system: UACC-62
SR = test system: SR
IGROV-1 = test system: IGROV-1
A498 = test system: A498
SF-539 = test system: SF-539
HOP-92 = test system: HOP-92

SMILES: O=C(O)C/C=C/CC(=O)O
- GI50 (DU-145): > 100 µM (inactive)
- GI50 (ACHN): > 100 µM (inactive)
- GI50 (SNB-19): > 100 µM (inactive)
- GI50 (UACC-257): > 100 µM (inactive)
- GI50 (OVCAR-3): > 100 µM (inactive)
- GI50 (SF-295): > 100 µM (inactive)
- GI50 (A549): > 100 µM (inactive)
- GI50 (NCI-H23): > 100 µM (inactive)
- GI50 (OVCAR-5): > 100 µM (inactive)
- GI50 (MCF7): > 100 µM (inactive)
- GI50 (COLO 205): > 100 µM (inactive)
- GI50 (MOLT-4): > 100 µM (inactive)
- GI50 (PC-3): > 100 µM (inactive)
- GI50 (NCI-H226): > 100 µM (inactive)
- GI50 (MDA-MB-435): > 100 µM (inactive)
- GI50 (HCC 2998): > 100 µM (inactive)
- GI50 (NCI-H460): > 100 µM (inactive)
- GI50 (Hs-578T): > 100 µM (inactive)
- GI50 (UO-31): > 100 µM (inactive)
- GI50 (RPMI-8226): > 100 µM (inactive)
- GI50 (Malme-3M): > 100 µM (inactive)
- GI50 (U-251): > 100 µM (inactive)
- GI50 (CAKI-1): > 100 µM (inactive)
- GI50 (HCT-116): > 100 µM (inactive)
- GI50 (SN12C): 25.7 µM (inactive)
- GI50 (T47D): > 100 µM (inactive)
- GI50 (MDA-MB-231): > 100 µM (inactive)
- GI50 (HT-29): > 100 µM (inactive)
- GI50 (CCRF-CEM): > 100 µM (inactive)
- GI50 (OVCAR-8): > 100 µM (inactive)
- GI50 (SK-OV-3): > 100 µM (inactive)
- GI50 (786-0): > 100 µM (inactive)
- GI50 (SK-MEL-2): > 100 µM (inactive)
- GI50 (SK-MEL-28): > 100 µM (inactive)
- GI50 (OVCAR-4): > 100 µM (inactive)
- GI50 (K562): 67.1 µM (inactive)
- GI50 (HOP-62): > 100 µM (inactive)
- GI50 (NCI/ADR-RES): > 100 µM (inactive)
- GI50 (EKVX): > 100 µM (inactive)
- GI50 (HL-60): > 100 µM (inactive)
- GI50 (MDA-N): > 100 µM (inactive)
- GI50 (SK-MEL-5): > 100 µM (inactive)
- GI50 (NCI-H522): > 100 µM (inactive)
- GI50 (TK-10): > 100 µM (inactive)
- GI50 (SF-268): > 100 µM (inactive)
- GI50 (LOX IMVI): > 100 µM (inactive)
- GI50 (M14): > 100 µM (inactive)
- GI50 (RXF 393): > 100 µM (inactive)
- GI50 (SNB-75): > 100 µM (inactive)
- GI50 (BT-549): > 100 µM (inactive)
- GI50 (KM12): > 100 µM (inactive)
- GI50 (HCT-15): > 100 µM
- GI50 (SW-620): > 100 µM (inactive)
- GI50 (UACC-62): > 100 µM (inactive)
- GI50 (SR): > 100 µM (inactive)
- GI50 (IGROV-1): > 100 µM (inactive)
- GI50 (A498): > 100 µM (inactive)

SMILES: O=c1c2cc([N+](=O)[O-])cnc2sn1-c1ccc([N+](=O)[O-])cc1
- GI50 (DU-145): 45.7 µM (inactive)
- GI50 (ACHN): 71.3 µM (inactive)
- GI50 (SNB-19): 30.1 µM (inactive)
- GI50 (UACC-257): > 100 µM (inactive)
- GI50 (OVCAR-3): 34.6 µM (inactive)
- GI50 (SF-295): 38.2 µM (inactive)
- GI50 (A549): 33 µM (inactive)
- GI50 (NCI-H23): 31.2 µM (inactive)
- GI50 (SF-539): 29.2 µM (inactive)
- GI50 (OVCAR-5): 59.2 µM (inactive)
- GI50 (MCF7): 22.4 µM (inactive)
- GI50 (COLO 205): 16.9 µM (inactive)
- GI50 (MOLT-4): 32.1 µM (inactive)
- GI50 (PC-3): 22 µM (inactive)
- GI50 (NCI-H226): 74.6 µM (inactive)
- GI50 (MDA-MB-435): 84.1 µM (inactive)
- GI50 (HCC 2998): 43.8 µM (inactive)
- GI50 (NCI-H460): 45.1 µM (inactive)
- GI50 (Hs-578T): 29.2 µM (inactive)
- GI50 (UO-31): 52 µM (inactive)
- GI50 (RPMI-8226): 23.9 µM (inactive)
- GI50 (Malme-3M): 14.2 µM (inactive)
- GI50 (U-251): 49.5 µM (inactive)
- GI50 (HCT-116): 23.7 µM (inactive)
- GI50 (SN12C): 47.2 µM (inactive)
- GI50 (T47D): 14.7 µM (inactive)
- GI50 (MDA-MB-231): 19.9 µM (inactive)
- GI50 (HT-29): 21.8 µM (inactive)
- GI50 (CCRF-CEM): 34.8 µM (inactive)
- GI50 (OVCAR-8): 42.5 µM (inactive)
- GI50 (SK-OV-3): 35.5 µM (inactive)
- GI50 (786-0): 40.4 µM (inactive)
- GI50 (SK-MEL-2): 23.8 µM (inactive)
- GI50 (SK-MEL-28): 82.4 µM (inactive)
- GI50 (OVCAR-4): 27.7 µM (inactive)
- GI50 (HOP-62): 52 µM (inactive)
- GI50 (NCI/ADR-RES): 28.9 µM (inactive)
- GI50 (EKVX): 40.3 µM (inactive)
- GI50 (HL-60): 26 µM (inactive)
- GI50 (MDA-N): 87.7 µM (inactive)
- GI50 (SK-MEL-5): 99.5 µM (inactive)
- GI50 (NCI-H522): 7.28 µM (inactive)
- GI50 (TK-10): > 100 µM (inactive)
- GI50 (SF-268): 27.1 µM (inactive)
- GI50 (LOX IMVI): 18.5 µM (inactive)
- GI50 (M14): 48.8 µM (inactive)
- GI50 (SNB-75): 38.1 µM (inactive)
- GI50 (BT-549): 40 µM (inactive)
- GI50 (KM12): 26.4 µM (inactive)
- GI50 (HCT-15): 28.5 µM
- GI50 (SW-620): 32.1 µM (inactive)
- GI50 (UACC-62): 66.4 µM (inactive)
- GI50 (SR): 22.1 µM (inactive)
- GI50 (IGROV-1): 52.5 µM (inactive)

SMILES: O=C(O)CN1CCN2CCCCCN(CC1)CCN(CC(=O)O)CC2
- GI50 (DU-145): > 100 µM (inactive)
- GI50 (ACHN): > 100 µM (inactive)
- GI50 (SNB-19): > 100 µM (inactive)
- GI50 (UACC-257): > 100 µM (inactive)
- GI50 (OVCAR-3): > 100 µM (inactive)
- GI50 (SF-295): > 100 µM (inactive)
- GI50 (A549): > 100 µM (inactive)
- GI50 (SF-539): > 100 µM (inactive)
- GI50 (OVCAR-5): > 100 µM (inactive)
- GI50 (MCF7): > 100 µM (inactive)
- GI50 (COLO 205): > 100 µM (inactive)
- GI50 (PC-3): > 100 µM (inactive)
- GI50 (NCI-H226): > 100 µM (inactive)
- GI50 (MDA-MB-435): > 100 µM (inactive)
- GI50 (NCI-H460): 91.4 µM (inactive)
- GI50 (Hs-578T): 31.8 µM (inactive)
- GI50 (UO-31): > 100 µM (inactive)
- GI50 (RPMI-8226): > 100 µM (inactive)
- GI50 (Malme-3M): 22.4 µM (inactive)
- GI50 (U-251): > 100 µM (inactive)
- GI50 (CAKI-1): > 100 µM (inactive)
- GI50 (HCT-116): 73.8 µM (inactive)
- GI50 (SN12C): > 100 µM (inactive)
- GI50 (T47D): > 100 µM (inactive)
- GI50 (MDA-MB-231): > 100 µM (inactive)
- GI50 (HT-29): 31.2 µM (inactive)
- GI50 (CCRF-CEM): > 100 µM (inactive)
- GI50 (OVCAR-8): > 100 µM (inactive)
- GI50 (SK-OV-3): > 100 µM (inactive)
- GI50 (786-0): > 100 µM (inactive)
- GI50 (SK-MEL-2): > 100 µM (inactive)
- GI50 (SK-MEL-28): > 100 µM (inactive)
- GI50 (OVCAR-4): > 100 µM (inactive)
- GI50 (K562): > 100 µM (inactive)
- GI50 (HOP-62): > 100 µM (inactive)
- GI50 (NCI/ADR-RES): 22.1 µM (inactive)
- GI50 (EKVX): > 100 µM (inactive)
- GI50 (HL-60): 5.26 µM (inactive)
- GI50 (MDA-N): > 100 µM (inactive)
- GI50 (SK-MEL-5): > 100 µM (inactive)
- GI50 (NCI-H522): 53.3 µM (inactive)
- GI50 (TK-10): > 100 µM (inactive)
- GI50 (LOX IMVI): > 100 µM (inactive)
- GI50 (M14): > 100 µM (inactive)
- GI50 (SNB-75): 11.4 µM (inactive)
- GI50 (BT-549): > 100 µM (inactive)
- GI50 (HOP-92): > 100 µM (inactive)
- GI50 (KM12): 84.7 µM (inactive)
- GI50 (HCT-15): > 100 µM
- GI50 (SW-620): 83.9 µM (inactive)
- GI50 (UACC-62): > 100 µM (inactive)
- GI50 (SR): 45.1 µM (inactive)
- GI50 (IGROV-1): > 100 µM (inactive)
- GI50 (A498): > 100 µM (inactive)
